Measured values taken from patent US7601331B2, “NIR-sensitive nanoparticle” (National University of Singapore, priority 2004, dated 2009).

Legend:
[1] = Thermogravimetric analysis (TGA) of freeze-dried surface-modified particles; type: physicochemical; details: for Decomposition Temp.: TGA in helium, surfactant on NIR-sensitive nanoparticles; for Ave. Absorbed (amount of ligand adsorbed): TGA of freeze-dried particles
Method: Thermogravimetric analysis (TGA) was conducted in helium using a Perkin-Elmer series 7 Thermal Analysis system at a ramp rate of 4° C./min from 30° C. to 900° C.

[2] = Method: Anti-cancer drugs and other biomolecules can be loaded onto the NIR-sensitive nanoparticles by coating the particles with surfactants. […] The insolubility of MUA in water necessitated the chemisorption of MUA in absolute ethanol. NIR-sensitive nanoparticles (colloids) were separated from the aqueous reaction mixture by centrifugation, and dispersed in 100 mM MUA in absolute ethanol. The nanoparticles (colloids) were dispersed in these surfactant solutions for 3 days, an estimated time for chemisorption to reach equilibrium.

| Structure (SMILES) | Decomposition Temp. [1] [°C] | Ave. Absorbed (amount of ligand adsorbed) [1] [nmol/mg] | solubility in water [2] |
| --- | --- | --- | --- |
| O=C(O)CCCCCCCCCCS [MUA, mercaptoundecanoic acid] | ~200 | 0.10 ± 0.03 | insolubility |
| O=C(O)CS [MAA, mercaptoacetic acid] | ~150 | 0.14 ± 0.01 | – |
